From PMC6445163, “Design, synthesis, and evaluation of novel 2-phenylpropionic acid derivatives as dual COX inhibitory-antibacterial agents” (Journal of Enzyme Inhibition and Medicinal Chemistry, 2017) come the findings set out here.

One data set addresses T1, COX-1 (Ovis aries, UniProt P05979).
T1 construct: purchased Biovision K548-100
T1 sequence (P05979 25-600): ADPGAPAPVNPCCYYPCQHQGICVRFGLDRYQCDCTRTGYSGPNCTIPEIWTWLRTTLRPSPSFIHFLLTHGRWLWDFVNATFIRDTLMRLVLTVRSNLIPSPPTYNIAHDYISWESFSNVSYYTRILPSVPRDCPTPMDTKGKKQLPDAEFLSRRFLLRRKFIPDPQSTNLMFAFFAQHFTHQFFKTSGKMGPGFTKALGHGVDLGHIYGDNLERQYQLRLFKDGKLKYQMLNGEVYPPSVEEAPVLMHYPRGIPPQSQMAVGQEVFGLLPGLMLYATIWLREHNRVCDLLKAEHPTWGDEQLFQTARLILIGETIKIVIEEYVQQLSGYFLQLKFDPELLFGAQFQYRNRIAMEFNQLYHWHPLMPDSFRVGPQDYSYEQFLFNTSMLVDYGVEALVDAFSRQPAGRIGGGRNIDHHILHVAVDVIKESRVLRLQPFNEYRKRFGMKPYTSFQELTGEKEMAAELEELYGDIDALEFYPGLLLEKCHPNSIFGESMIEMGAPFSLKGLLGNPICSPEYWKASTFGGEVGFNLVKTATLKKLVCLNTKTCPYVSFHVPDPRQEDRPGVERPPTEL
The data set is described as follows: fluorometric COX-1 inhibitor screening kit assay. Conditions: fluorometric kit, 25 °C. The class given is biochemical. The procedure: Inhibitory potency of the compounds against COX-1 and COX-2 enzymes was determined using fluorometric COX-1 and COX-2 inhibitor screening kits (Biovision, Zurich, Switzerland). Experimental protocol was followed as described in the guides of the supplier[47]^,[48]. All of the pipettings in the assay were performed by Biotek Precision robotic system (BioTek Instruments, Inc., Winooski, VT). […] Appropriate two points (T1 and T2) in the linear range of the plot were chosen, and the corresponding fluorescence values (RFU1 and RFU2) were obtained. The slope for all samples, including enzyme control (EC), by dividing the net ΔRFU (RFU2–RFU1) values by the time ΔT (T2–T1) were calculated by using following equation: % Relative inhibition=(Slope of EC-Slope of S/Slope of EC)×100
This initial in vitro assay was done with two concentrations (10^−3 and 10^−4 M) for all compounds. […] The IC50 value was calculated from the plots of enzyme activity against concentrations by applying regression analyses on GraphPad Prism Version 5 (GraphPad Software, La Jolla, CA).
Selectivity indexes (SI) were expressed as IC50 (COX-1)/IC50 (COX-2). Selectivity toward COX-2 decreases as the corresponding SI decreases while selectivity toward COX-1 isoform increases as the corresponding SI decreases.

The nature of another data set: MTT cytotoxicity test. Conditions: mouse. The procedure: NIH/3T3 cells were incubated according to the supplier’s recommendations. NIH/3T3 cells were seeded at 1 × 10^4 cells into each well of 96-well plates. MTT assay was performed as previously described[51]^,[52].
There are a number of requirements to be fulfilled for successful new drug development. […] This assay is based upon the reduction of yellow MTT dye by metabolically active eukaryotic and prokaryotic cells to form the purple formazan product. The assay is generally used to examine cell viability and to estimate cell culture growth[66]^,[67].
On the technique in general: Tetrazolium dyes change colour on reduction, which living cells bring about.

For orientation: IC50 means the midpoint of a concentration-inhibition curve. High values mean lower potency, low ones higher potency. Consider `CS(=O)(=O)Nc1ccc([N+](=O)[O-])cc1Oc1ccccc1` [Nimesulide, reference compound], for which the results for the IC50 against COX-1 and in the data set “MTT cytotoxicity test” were 4.28 µM and at least 1 mM, respectively.
